Results as given in ChEMBL document CHEMBL5291721, “A preclinical secondary pharmacology resource illuminates target-adverse drug reaction associations of marketed drugs” (Nat Commun, 2023).

Tests used:
B2 bradykinin receptor = target: T1, B2 bradykinin receptor (Homo sapiens, UniProt P30411)
T1 sequence (P30411 whole entry): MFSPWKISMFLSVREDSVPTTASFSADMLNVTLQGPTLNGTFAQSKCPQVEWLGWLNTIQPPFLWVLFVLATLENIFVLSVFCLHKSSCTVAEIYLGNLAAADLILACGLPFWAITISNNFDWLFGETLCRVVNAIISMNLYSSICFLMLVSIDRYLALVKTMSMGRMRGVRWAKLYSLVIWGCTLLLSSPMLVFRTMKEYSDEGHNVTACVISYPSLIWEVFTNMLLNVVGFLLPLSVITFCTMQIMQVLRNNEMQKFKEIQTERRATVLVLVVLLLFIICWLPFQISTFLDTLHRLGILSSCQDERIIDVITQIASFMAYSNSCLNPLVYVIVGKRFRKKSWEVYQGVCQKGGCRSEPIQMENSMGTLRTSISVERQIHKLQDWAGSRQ

[1] = target: T2, Prostaglandin G/H synthase 1 (Rattus norvegicus, UniProt Q63921); assay type: functional
T2 sequence (Q63921 whole entry): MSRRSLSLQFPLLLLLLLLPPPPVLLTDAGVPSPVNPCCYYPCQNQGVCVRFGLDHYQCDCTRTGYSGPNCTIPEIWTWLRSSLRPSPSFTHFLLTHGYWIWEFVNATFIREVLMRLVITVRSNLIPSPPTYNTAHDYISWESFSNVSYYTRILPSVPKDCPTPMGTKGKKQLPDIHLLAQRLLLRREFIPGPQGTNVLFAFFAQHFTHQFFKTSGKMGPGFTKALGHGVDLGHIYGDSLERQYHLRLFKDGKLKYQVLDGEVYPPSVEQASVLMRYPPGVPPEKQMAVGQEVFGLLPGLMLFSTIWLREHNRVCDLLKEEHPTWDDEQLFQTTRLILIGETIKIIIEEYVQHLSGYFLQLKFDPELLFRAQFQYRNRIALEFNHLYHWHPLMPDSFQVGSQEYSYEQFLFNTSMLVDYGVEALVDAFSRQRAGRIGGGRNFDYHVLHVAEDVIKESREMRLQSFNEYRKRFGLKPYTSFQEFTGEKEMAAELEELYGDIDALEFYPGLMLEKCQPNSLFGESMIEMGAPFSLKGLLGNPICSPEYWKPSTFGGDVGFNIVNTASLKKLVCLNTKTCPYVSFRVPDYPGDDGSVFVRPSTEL

[2] = target: Growth hormone secretagogue receptor type 1 (Homo sapiens, UniProt Q92847)
Adenosine receptor A3 = target: T3, Adenosine receptor A3 (Homo sapiens, UniProt P0DMS8)
T3 sequence (P0DMS8 whole entry): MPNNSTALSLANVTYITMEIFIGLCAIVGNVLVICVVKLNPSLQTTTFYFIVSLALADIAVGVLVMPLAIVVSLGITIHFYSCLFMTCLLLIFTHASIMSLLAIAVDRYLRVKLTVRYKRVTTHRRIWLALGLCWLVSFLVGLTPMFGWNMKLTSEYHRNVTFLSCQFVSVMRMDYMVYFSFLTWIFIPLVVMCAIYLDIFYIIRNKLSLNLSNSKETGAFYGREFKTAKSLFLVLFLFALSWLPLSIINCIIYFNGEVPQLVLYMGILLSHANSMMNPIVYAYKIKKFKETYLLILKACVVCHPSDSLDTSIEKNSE

Adenosine receptor A1 = target: T4, Adenosine receptor A1 (Homo sapiens, UniProt P30542)
T4 sequence (P30542 whole entry): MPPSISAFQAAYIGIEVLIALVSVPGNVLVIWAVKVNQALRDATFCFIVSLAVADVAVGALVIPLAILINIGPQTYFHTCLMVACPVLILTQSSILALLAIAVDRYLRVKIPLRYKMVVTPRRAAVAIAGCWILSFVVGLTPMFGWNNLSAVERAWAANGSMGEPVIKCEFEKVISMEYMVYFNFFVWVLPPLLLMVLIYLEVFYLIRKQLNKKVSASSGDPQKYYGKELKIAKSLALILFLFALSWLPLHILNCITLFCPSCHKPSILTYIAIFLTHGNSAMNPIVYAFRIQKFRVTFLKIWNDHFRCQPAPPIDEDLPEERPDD

Melanocortin receptor 4 = Melanocortin receptor 4 (Homo sapiens, UniProt P32245)
[3] = target: T5, 5-hydroxytryptamine receptor 1A (Homo sapiens, UniProt P08908); assay type: functional, cell-based
T5 sequence (P08908 whole entry): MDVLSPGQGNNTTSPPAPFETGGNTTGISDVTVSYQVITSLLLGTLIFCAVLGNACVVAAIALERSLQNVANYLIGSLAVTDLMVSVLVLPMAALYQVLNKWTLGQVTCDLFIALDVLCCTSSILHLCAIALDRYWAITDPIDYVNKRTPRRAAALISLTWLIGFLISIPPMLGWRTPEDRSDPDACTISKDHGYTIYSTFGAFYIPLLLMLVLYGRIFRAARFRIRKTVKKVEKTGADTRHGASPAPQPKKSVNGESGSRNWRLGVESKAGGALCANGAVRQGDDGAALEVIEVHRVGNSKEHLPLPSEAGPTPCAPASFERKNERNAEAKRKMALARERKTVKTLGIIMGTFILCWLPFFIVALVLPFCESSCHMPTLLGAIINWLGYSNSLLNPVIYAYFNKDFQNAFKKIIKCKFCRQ

[4] = target: T6, Alpha-2A adrenergic receptor (Homo sapiens, UniProt P08913); assay type: functional, cell-based
T6 sequence (P08913 whole entry): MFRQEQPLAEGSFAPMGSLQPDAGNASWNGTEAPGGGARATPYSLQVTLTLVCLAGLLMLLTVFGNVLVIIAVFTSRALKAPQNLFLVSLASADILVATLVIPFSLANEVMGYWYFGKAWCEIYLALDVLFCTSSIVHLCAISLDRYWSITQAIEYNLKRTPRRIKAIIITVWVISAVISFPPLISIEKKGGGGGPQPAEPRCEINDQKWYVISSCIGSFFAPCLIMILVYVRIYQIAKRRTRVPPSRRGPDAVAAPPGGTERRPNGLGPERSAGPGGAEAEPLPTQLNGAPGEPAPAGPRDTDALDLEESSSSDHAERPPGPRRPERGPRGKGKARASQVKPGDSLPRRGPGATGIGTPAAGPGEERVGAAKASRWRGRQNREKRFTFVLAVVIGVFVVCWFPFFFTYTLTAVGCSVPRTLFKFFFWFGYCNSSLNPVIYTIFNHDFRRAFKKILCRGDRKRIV

[5] = target: cGMP-inhibited 3',5'-cyclic phosphodiesterase 3A (Homo sapiens, UniProt Q14432); assay type: functional
Cannabinoid receptor 1 = Cannabinoid receptor 1 (Homo sapiens, UniProt P21554)
Histamine H2 receptor = Histamine H2 receptor (Homo sapiens, UniProt P25021); assay type: functional, cell-based
[6] = target: Beta-2 adrenergic receptor (Homo sapiens, UniProt P07550); assay type: functional, cell-based
Further: assay procedure not described here.

Sequence of Growth hormone secretagogue receptor type 1 (Q92847 whole entry): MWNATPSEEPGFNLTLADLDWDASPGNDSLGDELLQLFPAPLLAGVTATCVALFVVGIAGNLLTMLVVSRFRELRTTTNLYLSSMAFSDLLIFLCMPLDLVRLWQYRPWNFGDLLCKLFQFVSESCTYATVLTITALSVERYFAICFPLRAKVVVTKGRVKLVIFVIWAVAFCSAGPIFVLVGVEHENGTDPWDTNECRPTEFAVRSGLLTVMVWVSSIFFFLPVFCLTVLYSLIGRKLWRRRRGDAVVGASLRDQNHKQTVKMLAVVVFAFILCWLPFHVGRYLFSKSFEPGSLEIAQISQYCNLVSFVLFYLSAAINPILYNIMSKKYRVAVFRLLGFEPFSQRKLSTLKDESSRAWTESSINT
Sequence of Cannabinoid receptor 1 (P21554 whole entry): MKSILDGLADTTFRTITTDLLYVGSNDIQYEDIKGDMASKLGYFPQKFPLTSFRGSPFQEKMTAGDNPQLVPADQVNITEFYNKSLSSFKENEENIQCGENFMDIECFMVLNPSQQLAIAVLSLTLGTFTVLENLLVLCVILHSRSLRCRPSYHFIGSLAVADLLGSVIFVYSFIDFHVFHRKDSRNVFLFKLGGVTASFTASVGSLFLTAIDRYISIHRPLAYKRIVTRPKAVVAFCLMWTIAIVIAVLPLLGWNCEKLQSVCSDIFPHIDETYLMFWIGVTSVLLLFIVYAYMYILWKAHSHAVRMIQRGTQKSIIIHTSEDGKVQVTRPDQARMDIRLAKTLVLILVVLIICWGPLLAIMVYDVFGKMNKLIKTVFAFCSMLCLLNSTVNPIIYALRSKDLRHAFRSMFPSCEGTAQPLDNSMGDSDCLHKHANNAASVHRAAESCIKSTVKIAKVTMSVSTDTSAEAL
Sequence of Histamine H2 receptor (P25021 whole entry): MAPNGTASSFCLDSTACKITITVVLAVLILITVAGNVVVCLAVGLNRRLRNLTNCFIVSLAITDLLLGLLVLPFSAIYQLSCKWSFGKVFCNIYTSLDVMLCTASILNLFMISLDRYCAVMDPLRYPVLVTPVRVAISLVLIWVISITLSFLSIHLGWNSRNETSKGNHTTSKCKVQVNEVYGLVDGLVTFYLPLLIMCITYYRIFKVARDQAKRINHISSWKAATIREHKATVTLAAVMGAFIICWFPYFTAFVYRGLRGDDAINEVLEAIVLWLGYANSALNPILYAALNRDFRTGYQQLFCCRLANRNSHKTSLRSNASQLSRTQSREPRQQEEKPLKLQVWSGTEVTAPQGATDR
Sequence of Beta-2 adrenergic receptor (P07550 whole entry): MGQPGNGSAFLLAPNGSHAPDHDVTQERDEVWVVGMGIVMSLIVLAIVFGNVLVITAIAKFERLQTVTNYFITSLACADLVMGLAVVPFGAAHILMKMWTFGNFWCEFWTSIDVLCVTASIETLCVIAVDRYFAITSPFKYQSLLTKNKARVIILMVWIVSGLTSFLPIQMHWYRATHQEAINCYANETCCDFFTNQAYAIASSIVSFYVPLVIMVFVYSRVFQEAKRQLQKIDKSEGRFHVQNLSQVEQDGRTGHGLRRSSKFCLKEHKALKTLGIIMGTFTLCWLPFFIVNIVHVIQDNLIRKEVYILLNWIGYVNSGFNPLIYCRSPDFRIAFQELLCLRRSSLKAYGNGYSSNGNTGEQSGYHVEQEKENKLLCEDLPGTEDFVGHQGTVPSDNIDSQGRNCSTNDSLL
Sequence of cGMP-inhibited 3',5'-cyclic phosphodiesterase 3A (Q14432 whole entry): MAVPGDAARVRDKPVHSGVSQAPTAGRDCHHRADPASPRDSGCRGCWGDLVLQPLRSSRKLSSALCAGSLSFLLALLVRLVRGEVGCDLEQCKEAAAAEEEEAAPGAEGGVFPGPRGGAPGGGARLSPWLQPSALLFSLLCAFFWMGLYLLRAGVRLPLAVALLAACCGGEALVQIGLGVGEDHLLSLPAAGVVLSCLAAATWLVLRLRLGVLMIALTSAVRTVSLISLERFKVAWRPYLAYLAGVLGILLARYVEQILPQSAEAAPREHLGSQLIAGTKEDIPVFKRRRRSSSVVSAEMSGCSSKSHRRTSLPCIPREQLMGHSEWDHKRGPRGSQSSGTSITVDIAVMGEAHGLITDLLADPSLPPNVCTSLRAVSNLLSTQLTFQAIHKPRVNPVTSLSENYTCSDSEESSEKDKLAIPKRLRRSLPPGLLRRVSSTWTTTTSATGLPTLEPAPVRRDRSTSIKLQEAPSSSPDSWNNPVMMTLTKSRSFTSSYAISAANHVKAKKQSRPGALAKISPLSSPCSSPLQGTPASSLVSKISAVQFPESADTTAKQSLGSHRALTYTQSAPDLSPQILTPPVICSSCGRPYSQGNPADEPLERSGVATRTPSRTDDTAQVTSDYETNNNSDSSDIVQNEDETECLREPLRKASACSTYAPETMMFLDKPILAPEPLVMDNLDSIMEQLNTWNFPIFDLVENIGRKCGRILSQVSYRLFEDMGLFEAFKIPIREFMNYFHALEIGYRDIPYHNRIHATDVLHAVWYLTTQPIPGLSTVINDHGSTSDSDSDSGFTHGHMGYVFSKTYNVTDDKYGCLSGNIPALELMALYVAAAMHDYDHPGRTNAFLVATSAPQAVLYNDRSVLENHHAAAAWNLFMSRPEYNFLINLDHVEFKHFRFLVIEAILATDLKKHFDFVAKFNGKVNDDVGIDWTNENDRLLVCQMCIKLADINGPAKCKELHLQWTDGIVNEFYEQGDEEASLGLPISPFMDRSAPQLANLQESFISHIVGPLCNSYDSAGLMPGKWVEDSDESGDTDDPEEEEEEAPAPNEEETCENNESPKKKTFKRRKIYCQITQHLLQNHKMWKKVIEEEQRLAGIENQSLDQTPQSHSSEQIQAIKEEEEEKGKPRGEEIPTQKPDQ
Sequence of Melanocortin receptor 4 (P32245 whole entry): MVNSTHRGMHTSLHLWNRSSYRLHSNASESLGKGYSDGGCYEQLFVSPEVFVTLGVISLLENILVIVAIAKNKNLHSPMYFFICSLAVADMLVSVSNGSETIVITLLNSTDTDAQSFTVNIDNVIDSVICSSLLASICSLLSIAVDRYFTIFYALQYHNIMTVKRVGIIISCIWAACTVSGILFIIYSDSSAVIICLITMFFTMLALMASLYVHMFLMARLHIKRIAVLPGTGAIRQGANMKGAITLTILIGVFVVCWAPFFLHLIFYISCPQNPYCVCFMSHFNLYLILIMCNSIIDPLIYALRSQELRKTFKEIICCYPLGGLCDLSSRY

Structure (SMILES)	AC50 (B2 bradykinin receptor)	AC50 [1]	AC50 [2]	AC50 (Adenosine receptor A3)	AC50 (Adenosine receptor A1)	AC50 (Melanocortin receptor 4)	AC50 [3]	AC50 [4]	AC50 [5]	AC50 (Cannabinoid receptor 1)	AC50 (Histamine H2 receptor)	AC50 [6]
CN1CC(=O)N2[C@H](c3ccc4c(c3)OCO4)c3[nH]c4ccccc4c3C[C@@H]2C1=O	> 30 µM	> 30 µM	> 30 µM	> 30 µM	> 30 µM	> 30 µM	> 10 µM	> 10 µM	> 30 µM	> 10 µM	> 10 µM	> 30 µM
CN1CCc2cccc3c2[C@H]1Cc1ccc(O)c(O)c1-3 [APOMORPHINE]	> 30 µM	20.4 µM	> 30 µM	0.67 µM	> 30 µM	> 30 µM	–	3.8 µM	> 30 µM	> 10 µM	> 10 µM	> 30 µM
CC(C)c1c(C(=O)Nc2ccccc2)c(-c2ccccc2)c(-c2ccc(F)cc2)n1CC[C@@H](O)C[C@@H](O)CC(=O)O [ATORVASTATIN]	> 30 µM	> 30 µM	> 30 µM	> 30 µM	> 30 µM	> 30 µM	> 10 µM	> 10 µM	> 10 µM	> 10 µM	> 10 µM	> 30 µM
NC(CO)C(=O)NNCc1ccc(O)c(O)c1O (stereo not drawn) [BENSERAZIDE]	> 30 µM	> 30 µM	> 30 µM	21.6 µM	> 30 µM	> 30 µM	> 10 µM	> 10 µM	> 30 µM	> 10 µM	> 10 µM	> 30 µM
CN(C)C(=O)OC1N=C(c2ccccc2)c2cc(Cl)ccc2N(C)C1=O (stereo not drawn) [CAMAZEPAM]	> 30 µM	> 30 µM	> 30 µM	> 30 µM	> 30 µM	> 30 µM	> 10 µM	> 10 µM	> 30 µM	> 10 µM	> 10 µM	> 30 µM
CN[C@@H](C)[C@H](O)c1ccccc1 [EPHEDRINE]	> 30 µM	> 30 µM	> 30 µM	> 30 µM	> 30 µM	> 30 µM	> 10 µM	> 10 µM	> 30 µM	> 10 µM	> 10 µM	> 30 µM
CCN1CCC[C@H]1CNC(=O)c1cc(S(N)(=O)=O)ccc1OC [LEVOSULPIRIDE]	> 30 µM	> 30 µM	> 30 µM	> 30 µM	> 30 µM	> 30 µM	> 30 µM	> 10 µM	> 30 µM	> 10 µM	> 10 µM	> 30 µM
